# Columns and labels:
# CAL51 cells [1] = assay: Cell proliferation (Cell Titer Glow), CAL51; type: cell-based; settings: Homo sapiens, CAL-51; IG compounds, cell killing, 72 h
# Description: (§1) Exemplary isoindolinone-glutarimide (IG) compounds of Table 1a, 1b and 1c were prepared and characterized according to the Examples herein. Certain exemplary IG compounds of(Table 1a were tested for their effects in inhibiting cellular proliferation, including CAL1 WSU-DLCL2, NCI-N87 and SKBR3. CAL51 is a human breast adenocarcinoma cell line with triple-negative status for expression of estrogen, progesterone and HER2 receptors. WSU-DLCL2 is a human B-Cell non-Hodgkin lymphoma cell line that expresses high levels of CD22. NCI-N87 is a human epithelial cell line established from a gastric carcinoma; SKBR3 is a human epithelial cell line established from a breast adenocarcinoma; both NCI-N87 and SKBR3 cell lines express high levels of HER2 receptor. […]
# (§2) One day prior to treatment with compounds or IGAC, cells were plated in white 96-well plates (SKBR: 3000 cells/well; CAL-51: 4000 cells/well). Compounds or ADCs were added in a serial-dilution manner reaching the indicated concentrations. Plates were incubated at 37 degrees for 96h (ADCs) or 72h (compounds) whereafter a 1:10 dilution of Cell Titer Glow was used to measure relative cell numbers after 10 min of incubation at room temperature.
# WSU-DLCL2 cells = assay: Cell proliferation (Cell Titer Glow), WSU-DLCL2; type: cell-based; settings: Homo sapiens, WSUDLCL2; IG compounds, cell killing, 72 h
# Description: (§3) Exemplary isoindolinone-glutarimide (IG) compounds of Table 1a, 1b and 1c were prepared and characterized according to the Examples herein. Certain exemplary IG compounds of(Table 1a were tested for their effects in inhibiting cellular proliferation, including CAL1 WSU-DLCL2, NCI-N87 and SKBR3. CAL51 is a human breast adenocarcinoma cell line with triple-negative status for expression of estrogen, progesterone and HER2 receptors. WSU-DLCL2 is a human B-Cell non-Hodgkin lymphoma cell line that expresses high levels of CD22. NCI-N87 is a human epithelial cell line established from a gastric carcinoma; SKBR3 is a human epithelial cell line established from a breast adenocarcinoma; both NCI-N87 and SKBR3 cell lines express high levels of HER2 receptor.
# (§4) Exemplary embodiments of the isoindolinone-glutarimide antibody conjugates (IGAC) of Formula I are compiled in Table 3. Assessment of IGAC biological activity and other properties may be conducted according to the methods of Example 102. In some instances, the Cell proliferation dose response IC50 value is an average of repetitive assays. Certain exemplary IGAC were tested for their effects in inhibiting cellular proliferation, including CAL51; WSU-DLCL2, NCI-N87 and SKBR3 cell lines. CAL51 is a human breast adenocarcinoma cell line with triple-negative status for expression of estrogen, progesterone and HER2 receptors. WSU-DLCL2 is a human B-Cell non-Hodgkin lymphoma cell line that expresses high levels of CD22. NCI-N87 is a human epithelial cell line established from a gastric carcinoma; SKBR3 is a human epithelial cell line established from a breast adenocarcinoma; both NCI-N87 and SKBR3 cell lines express high levels of HER2 receptor.
# On the day of treatment, 10,000 suspension cells/well were plated in white 96-well plates. Compounds or ADCs were added in a serial-dilution manner reaching the indicated concentrations. Plates were incubated at 37 degrees for 72 h whereafter a 1:10 dilution of Cell Titer Glow was used to measure relative cell numbers after 10 min of incubation at room temperature.
# SKBR3 cells [2] = assay: Cell proliferation (Cell Titer Glow), SKBR3; type: cell-based; settings: Homo sapiens, SK-BR-3; IG compounds, cell killing, 72 h
# Description: as §1, §2
# CAL51 cells [3] = assay: Degradation assay evaluated by immunofluorescence staining, CAL51; type: cell-based, human; settings: Homo sapiens, CAL-51, CAL51, 6 h
# Description: (§5) One day prior to treatment with compounds, black 96 well plates were coated with fibronectin (0.2 μg/ml in PBS) for 45 min at room temperature and subsequently washed with PBS. CAL-51 or SKBR3 cells were seeded at 30K cells/well (1001) and incubated overnight at 37° C. whereafter compounds were added reaching indicated concentrations. 6 h after treatment the medium was removed, cells were washed with PBS and fixed with 10% formalin for 20 mins at room temperature. Following two PBS washes (150 μl), cells were permeabilized in 0.1% Triton X-100 in PBS for 8 mins at room temperature and subsequently washed again twice with PBS. Cells were blocked thereafter with 1% BSA in PBS for 45 mins. Primary antibody was diluted in blocking buffer and incubated with the cells overnight at 4° C. After three washes with PBS, cells were incubated with secondary antibody for 1 h at RT, washed and subsequently images were taken on an Operetta High-Content Imager.
# (§6) For the determination of the DC50, a custom algorithm implemented in the PerkinElmer image analysis software Harmony-Acapella® was used.
# SKBR3 cells [4] = assay: Degradation assay evaluated by immunofluorescence staining, SKBR3; type: cell-based; settings: Homo sapiens, SK-BR-3, SKBR3, 6 h
# Description: as §5, §6
# NCI-N87 cells = assay: Cell proliferation (Cell Titer Glow), NCI-N87; type: cell-based; settings: Homo sapiens, IG compounds, cell killing, 72 h
# Description: as §3, §4
# One day prior to treatment with compounds or IGAC, cells were plated in white 96-well plates (SKBR: 3000 cells/well; CAL-51: 4000 cells/well). Compounds or ADCs were added in a serial-dilution manner reaching the indicated concentrations. […]
DC50 (CAL51 cells [3]) [nM],DC50 (SKBR3 cells [4]) [nM],Compound,IC50 (CAL51 cells [1]) [nM],IC50 (WSU-DLCL2 cells) [nM],IC50 (SKBR3 cells [2]) [nM],Dmax (CAL51 cells [3]) [%],Dmax (SKBR3 cells [4]) [%],IC50 (NCI-N87 cells) [nM]
345 ± 135,185,"CNCCOCCc1ccc(NC(=O)NCc2ccc3c(c2)CN(C2CCC(=O)NC2=O)C3=O)cc1Cl (stereo not shown) [IG-3, 1-(3-chloro-4-(2-(2-(methylamino)ethoxy)ethyl)phenyl)-3-((2-(2,6-dioxopiperidin-3-yl)-1-oxoisoindolin-5-yl)methyl)urea]",3010,66.4,77.5,79.4 ± 3.63,78.2,–
660 ± 997,4.62,"Cc1ccc(NC(=O)NCc2cc3c(cc2O)C(=O)N(C2CCC(=O)NC2=O)C3)cc1Cl (stereo not shown) [IG-36, 1-(3-chloro-4-methylphenyl)-3-((2-(2,6-dioxopiperidin-3-yl)-6-hydroxy-1-oxoisoindolin-5-yl)methyl)urea]",120,4.95,3.5,78.5 ± 8.18,91.8,–
35.8 ± 20.4,< 2.26,"Cc1ccc(NC(=O)NCc2ccc3c(c2O)CN(C2CCC(=O)NC2=O)C3=O)cc1Cl (stereo not shown) [IG-15, 1-(3-chloro-4-methylphenyl)-3-((2-(2,6-dioxopiperidin-3-yl)-4-hydroxy-1-oxoisoindolin-5-yl)methyl)urea]",54.9,4.25,5.19,79.2 ± 9.1,91.1 ± 3.35,–
139,7.88,"Cc1ccc(C(=O)C(=O)NCc2ccc3c(c2O)CN(C2CCC(=O)NC2=O)C3=O)cc1Cl (stereo not shown) [IG-37, 2-(3-chloro-4-methylphenyl)-N-((2-(2,6-dioxopiperidin-3-yl)-4-hydroxy-1-oxoisoindolin-5-y1)methyl)-2-oxoacetamide]",72.5,9.6,4.2,70.9,95.2,–
81.4,42.7,"O=C1CCC(N2Cc3c(ccc(CNC(=O)Nc4ccc5ccccc5c4)c3O)C2=O)C(=O)N1 (stereo not shown) [IG-39, 1-((2-(2,6-dioxopiperidin-3-yl)-4-hydroxy-1-oxoisoindolin-5-yl)methyl)-3-(naphthalen-2-yl)urea]",–,–,14.1,69.4,77.4,–
46.9,5.2,"CC(C)(C)c1ccccc1NC(=O)NCc1ccc2c(c1O)CN(C1CCC(=O)NC1=O)C2=O (stereo not shown) [IG-28, 1-(2-(tert-butyl)phenyl)-3-((2-(2,6-dioxopiperidin-3-yl)-4-hydroxy-1-oxoisoindolin-5-yl)methyl)urea]",22.5,–,–,94.2,90.2,–
< 5.41,2,"O=C1CCC(N2Cc3c(ccc(CNC(=O)Nc4cccc(C5(C(F)(F)F)CC5)c4)c3O)C2=O)C(=O)N1 (stereo not shown) [IG-42, 1-((2-(2,6-dioxopiperidin-3-yl)-4-hydroxy-1-oxoisoindolin-5-yl)methyl)-3-(3-(1-(trifluoromethyl)cyclopropyl)phenyl)urea]",25,1.43,2.73,96.1 ± 5.89,88.6,2.57
6.21,< 0.645,Cc1ccc(NC(=O)NCc2ccc3c(c2O)CN(C2CCC(=O)NC2=O)C3=O)cc1C(C)C (stereo not shown) [IG-50],–,0.75,1.38,105,99.6 ± 0.614,1.63
118 ± 35,52.2,"Cc1ccc(NC(=O)NCc2ccc3c(c2)CN(C2CCC(=O)NC2=O)C3=O)cc1O (stereo not shown) [IG-12, 1-((2-(2,6-dioxopiperidin-3-yl)-1-oxoisoindolin-5-yl)methyl)-3-(3-hydroxy-4-methylphenyl)urea]",1250,–,–,96.8 ± 4.12,98.3,–
113,10.6,"O=C1CCC(N2Cc3c(ccc(CNC(=O)Nc4cccc5ccccc45)c3O)C2=O)C(=O)N1 (stereo not shown) [IG-38, 1-((2-(2,6-dioxopiperidin-3-yl)-4-hydroxy-1-oxoisoindolin-5-yl)methyl)-3-(naphthalen-1-yl)urea]",35.9,–,–,93.7,94.1,–

# Continued, compound first:
Compound,DC50 (CAL51 cells [3]) [nM],DC50 (SKBR3 cells [4]) [nM],IC50 (CAL51 cells [1]) [nM],IC50 (WSU-DLCL2 cells) [nM],IC50 (SKBR3 cells [2]) [nM],Dmax (CAL51 cells [3]) [%],Dmax (SKBR3 cells [4]) [%],IC50 (NCI-N87 cells) [nM]
"O=C1CCC(N2Cc3c(ccc(CNC(=O)Nc4ccc(Br)c(Cl)c4)c3O)C2=O)C(=O)N1 (stereo not shown) [IG-40, 1-(4-bromo-3-chlorophenyl)-3-((2-(2,6-dioxopiperidin-3-yl)-4-hydroxy-1-oxoisoindolin-5-yl)methyl)urea]",–,–,–,–,21.3,–,–,–
"CC(C)c1cc(NC(=O)NCc2ccc3c(c2O)CN(C2CCC(=O)NC2=O)C3=O)ccc1C(F)(F)F (stereo not shown) [IG-51, 1-((2-(2,6-dioxopiperidin-3-yl)-4-hydroxy-1-oxoisoindolin-5-yl)methyl)-3-(3-isopropyl-4-(trifluoromethyl)phenyl)urea]",–,–,–,10.2,15.7,–,–,–
"CC(C)(C)c1ccc(NC(=O)NCc2ccc3nnn(C4CCC(=O)NC4=O)c(=O)c3c2)c(O)c1 (stereo not shown) [IG-49, 1-(4-(tert-butyl)-2-hydroxyphenyl)-3-((3-(2,6-dioxopiperidin-3-yl)-4-oxo-3,4-dihydrobenzo[d][1,2,3]triazin-6-yl)methyl)urea]",–,–,–,–,41.7,–,–,–
"O=C1CCC(N2Cc3c(ccc(CNC(=O)C(F)(F)c4ccc(Cl)cc4)c3O)C2=O)C(=O)N1 (stereo not shown) [IG-52, 2-(4-chlorophenyl)-N-((2-(2,6-dioxopiperidin-3-yl)-4-hydroxy-1-oxoisoindolin-5-yl)methyl)-2,2-difluoroacetamide]",–,–,–,> 2000,443,–,–,–
"Cc1c(Cl)cc(NC(=O)NCc2ccc3c(c2)CN(C2CCC(=O)NC2=O)C3=O)cc1N1CCOC1=O (stereo not shown) [IG-54, 1-(3-chloro-4-methyl-5-(2-oxooxazolidin-3-yl)phenyl)-3-((2-(2,6-dioxopiperidin-3-yl)-1-oxoisoindolin-5-yl)methyl)urea]",–,–,–,6.9,14.5,–,–,–
"Cc1ccc(NC(=O)NCc2ccc3c(c2)CN(C2CCC(=O)NC2=O)C3=O)cc1Cl (stereo not shown) [IG-1, 1-(3-chloro-4-methyl-phenyl)-3-[[2-(2,6-dioxo-3-piperidyl)-1-oxo-isoindolin-5-yl]methyl]urea]",3.24 ± 2.18,< 0.7,10.8,1.23,1.77,101 ± 4.45,95.5 ± 4.9,1.48
"CNCCOCCc1ccc(NC(=O)CCc2ccc3c(c2)CN(C2CCC(=O)NC2=O)C3=O)cc1Cl (stereo not shown) [IG-2, N-(3-chloro-4-(2-(2-(methylamino)ethoxy)ethyl)phenyl)-3-(2-(2,6-dioxopiperidin-3-yl)-1-oxoisoindolin-5-yl)propenamide]",–,–,> 10000,> 10000,> 10000,< 5,–,–
"O=C1CCC(N2Cc3c(ccc(CNC(=O)Nc4ccc(I)c(Cl)c4)c3O)C2=O)C(=O)N1 (stereo not shown) [IG-41, 1-(3-chloro-4-iodophenyl)-3-((2-(2,6-dioxopiperidin-3-yl)-4-hydroxy-1-oxoisoindolin-5-yl)methyl)urea]",–,–,25,–,17.1,–,–,–
